Key:
Test in all cases: FLIPR calcium assay, cells with promiscuous G protein transfected with bitter receptor cDNA
Assay type in all cases: cell-based
Details in all cases: responsive if cellular response of >10% over baseline, Fluo4-AM
[1] = target: T1, T2R receptor SEQ ID NO: 4 (S4) (Homo sapiens, UniProt Q9NYV8)
T1 construct: expressed in transfected cells; host or cells: cells expressing a promiscuous G protein (e.g., G16g44)
T1 sequence (Q9NYV8 1-317): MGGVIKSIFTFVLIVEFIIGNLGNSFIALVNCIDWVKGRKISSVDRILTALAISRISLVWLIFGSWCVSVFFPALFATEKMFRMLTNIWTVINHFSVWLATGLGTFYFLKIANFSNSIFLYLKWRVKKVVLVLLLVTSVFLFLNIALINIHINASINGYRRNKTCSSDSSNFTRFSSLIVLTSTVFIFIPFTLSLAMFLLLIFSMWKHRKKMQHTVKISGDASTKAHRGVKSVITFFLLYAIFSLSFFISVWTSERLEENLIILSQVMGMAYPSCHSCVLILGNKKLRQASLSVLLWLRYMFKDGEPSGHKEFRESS
Protocol: (§1) Cells expressing a promiscuous G protein (e.g., G16g44) were transfected with vectors encoding 22 functional bitter receptor cDNAs, with one receptor per transfection. The cells were transfected directly in 384-well format high-density plates and incubated for 28 hours. Later, cells were loaded with the Ca-specific dye Fluo4-AM. After an incubation of 60 minutes, excess dye is washed off, and cells are stimulated with respective bitter agonists while simultaneously recording changes in intracellular fluorescence using a FLIPR instrument.
(§2) The above protocol was carried out using 94 different active pharmaceutical ingredients (APIs) that span a wide range of different APIs having a diversity of chemical structures. A particular T2R receptor was identified as being responsive to a particular API if it triggered a cellular response of >10% over baseline.

[2] = target: T2, T2R receptor SEQ ID NO: 1 (S1) (Homo sapiens, UniProt Q9NYW7)
T2 construct: expressed in transfected cells; host or cells: cells expressing a promiscuous G protein (e.g., G16g44)
T2 sequence (Q9NYW7 1-299): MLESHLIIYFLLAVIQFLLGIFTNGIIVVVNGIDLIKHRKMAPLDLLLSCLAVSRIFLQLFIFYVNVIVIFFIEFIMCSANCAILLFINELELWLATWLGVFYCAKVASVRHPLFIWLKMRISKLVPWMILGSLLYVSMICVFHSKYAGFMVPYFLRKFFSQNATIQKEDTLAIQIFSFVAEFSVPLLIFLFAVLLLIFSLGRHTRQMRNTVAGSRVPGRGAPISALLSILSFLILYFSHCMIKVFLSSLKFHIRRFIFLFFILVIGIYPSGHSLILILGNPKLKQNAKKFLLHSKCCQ
Protocol: as §1, §2

[3] = target: T3, T2R receptor SEQ ID NO: 3 (S3) (Homo sapiens, UniProt Q9NYW0, T156M)
T3 construct: expressed in transfected cells; host or cells: cells expressing a promiscuous G protein (e.g., G16g44)
T3 sequence (Q9NYW0 1-307 T156M): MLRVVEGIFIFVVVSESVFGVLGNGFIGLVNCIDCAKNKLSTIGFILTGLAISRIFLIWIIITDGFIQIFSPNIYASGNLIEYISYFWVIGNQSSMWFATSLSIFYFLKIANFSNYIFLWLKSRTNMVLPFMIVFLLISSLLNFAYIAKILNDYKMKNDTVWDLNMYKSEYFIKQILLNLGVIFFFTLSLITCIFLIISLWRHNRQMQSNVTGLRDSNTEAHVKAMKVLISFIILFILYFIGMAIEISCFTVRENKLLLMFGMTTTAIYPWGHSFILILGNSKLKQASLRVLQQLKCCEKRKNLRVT
Protocol: as §1, §2

[4] = target: T4, T2R receptor SEQ ID NO: 6 (S6) (Homo sapiens, UniProt P59540)
T4 construct: expressed in transfected cells; host or cells: cells expressing a promiscuous G protein (e.g., G16g44)
T4 sequence (P59540 1-309): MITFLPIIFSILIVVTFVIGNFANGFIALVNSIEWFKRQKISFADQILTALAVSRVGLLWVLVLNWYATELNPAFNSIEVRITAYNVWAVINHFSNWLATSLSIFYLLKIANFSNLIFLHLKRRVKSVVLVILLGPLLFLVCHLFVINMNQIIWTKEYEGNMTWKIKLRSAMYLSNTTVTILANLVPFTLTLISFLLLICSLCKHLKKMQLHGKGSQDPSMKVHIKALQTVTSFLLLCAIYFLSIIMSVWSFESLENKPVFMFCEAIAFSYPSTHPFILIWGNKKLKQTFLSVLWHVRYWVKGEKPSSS
Protocol: as §1, §2

SMILES	S4 positive response of T2R receptor to API [1]	S3 positive response of T2R receptor to API [3]	S6 positive response of T2R receptor to API [4]	further results
Cc1cccc(Nc2ccccc2C(=O)O)c1C [Mefenamic Acid]	+ (a “+” to indicate whether a particular T2R receptor showed a positive response to a particular API)	–	–	–
CCCCc1ncc(/C=C(\Cc2cccs2)C(=O)O)n1Cc1ccc(C(=O)O)cc1 [Eprosartan]	–	–	–	S1 positive response of T2R receptor to API [2]: + (a “+” to indicate whether a particular T2R receptor showed a positive response to a particular API)
CCN(CC)CC(=O)Nc1c(C)cccc1C [Lidocaine]	+ (a “+” to indicate whether a particular T2R receptor showed a positive response to a particular API)	+ (a “+” to indicate whether a particular T2R receptor showed a positive response to a particular API)	–	–
O=C(O)c1ccccc1Nc1cccc(C(F)(F)F)c1 [Flufenamic Acid]	+ (a “+” to indicate whether a particular T2R receptor showed a positive response to a particular API)	–	–	–
Cn1c(=O)c2c(ncn2C)n(C)c1=O [Caffeine]	+ (a “+” to indicate whether a particular T2R receptor showed a positive response to a particular API)	+ (a “+” to indicate whether a particular T2R receptor showed a positive response to a particular API)	+ (a “+” to indicate whether a particular T2R receptor showed a positive response to a particular API)	–
Cc1cccn2c(=O)c(-c3nnn[nH]3)cnc12 [Pemirolast]	+ (a “+” to indicate whether a particular T2R receptor showed a positive response to a particular API)	–	–	–
CCn1cc(C(=O)O)c(=O)c2cc(F)c(N3CCNCC3)nc21 [Enoxacin]	–	–	+ (a “+” to indicate whether a particular T2R receptor showed a positive response to a particular API)	–
CCC1=C(C)CN(C(=O)NCCc2ccc(S(=O)(=O)NC(=O)N[C@H]3CC[C@H](C)CC3)cc2)C1=O [Glimepiride]	+ (a “+” to indicate whether a particular T2R receptor showed a positive response to a particular API)	–	–	–
CN1CCCC(n2nc(Cc3ccc(Cl)cc3)c3ccccc3c2=O)CC1 (stereo not drawn) [Azelastine]	–	+ (a “+” to indicate whether a particular T2R receptor showed a positive response to a particular API)	+ (a “+” to indicate whether a particular T2R receptor showed a positive response to a particular API)	–
Nc1ccc(S(=O)(=O)c2ccc(N)cc2)cc1 [Dapsone]	–	+ (a “+” to indicate whether a particular T2R receptor showed a positive response to a particular API)	–	–
CN1CCC(C(=O)c2cccc(NC(=O)c3c(F)cc(F)cc3F)n2)CC1 [Lasmitidan]	–	+ (a “+” to indicate whether a particular T2R receptor showed a positive response to a particular API)	+ (a “+” to indicate whether a particular T2R receptor showed a positive response to a particular API)	–
COc1ccc(-n2nc(C(N)=O)c3c2C(=O)N(c2ccc(N4CCCCC4=O)cc2)CC3)cc1 [Apixaban]	–	+ (a “+” to indicate whether a particular T2R receptor showed a positive response to a particular API)	–	–
C[C@]12CCC(=O)C=C1CC[C@@H]1[C@@H]2[C@@H](O)C[C@@]2(C)[C@H]1CC[C@]2(O)C(=O)CO [Hydrocortisone]	–	–	+ (a “+” to indicate whether a particular T2R receptor showed a positive response to a particular API)	–
Clc1ccc(COC(Cn2ccnc2)c2ccc(Cl)cc2Cl)c(Cl)c1 (stereo not drawn) [Micronazole]	+ (a “+” to indicate whether a particular T2R receptor showed a positive response to a particular API)	–	–	–
C=CCC1(C(C)CCC)C(=O)NC(=O)NC1=O (stereo not drawn) [Secobarbital Sodium]	+ (a “+” to indicate whether a particular T2R receptor showed a positive response to a particular API)	–	–	–
c1ccc(CC2=NCCN2)cc1 [Tolazoline]	–	+ (a “+” to indicate whether a particular T2R receptor showed a positive response to a particular API)	+ (a “+” to indicate whether a particular T2R receptor showed a positive response to a particular API)	–
COc1ccc(C(CN(C)C)C2(O)CCCCC2)cc1 (stereo not drawn) [Venlafaxine]	–	+ (a “+” to indicate whether a particular T2R receptor showed a positive response to a particular API)	+ (a “+” to indicate whether a particular T2R receptor showed a positive response to a particular API)	–
NS(=O)(=O)c1cc2c(cc1Cl)NCNS2(=O)=O [Hydrochlorothiazide]	–	+ (a “+” to indicate whether a particular T2R receptor showed a positive response to a particular API)	+ (a “+” to indicate whether a particular T2R receptor showed a positive response to a particular API)	–
CCCC(C)(COC(N)=O)COC(=O)NC(C)C (stereo not drawn) [Carisoprodol]	+ (a “+” to indicate whether a particular T2R receptor showed a positive response to a particular API)	–	–	–
O=C(O)c1cccnc1Nc1cccc(C(F)(F)F)c1 [Niflumic Acid]	+ (a “+” to indicate whether a particular T2R receptor showed a positive response to a particular API)	–	–	–
Cn1cnc([N+](=O)[O-])c1Sc1ncnc2nc[nH]c12 [Azathioprine]	–	+ (a “+” to indicate whether a particular T2R receptor showed a positive response to a particular API)	+ (a “+” to indicate whether a particular T2R receptor showed a positive response to a particular API)	–
O=C(CCCN1CCC(O)(c2ccc(Cl)cc2)CC1)c1ccc(F)cc1 [Haloperidol]	+ (a “+” to indicate whether a particular T2R receptor showed a positive response to a particular API)	+ (a “+” to indicate whether a particular T2R receptor showed a positive response to a particular API)	–	–
C=CC[C@@H]1/C=C(\C)C[C@H](C)C[C@H](OC)[C@H]2O[C@@](O)(C(=O)C(=O)N3CCCC[C@H]3C(=O)O[C@H](/C(C)=C/[C@@H]3CC[C@@H](O)[C@H](OC)C3)[C@H](C)[C@@H](O)CC1=O)[C@H](C)C[C@@H]2OC [Fujimycin]	–	–	–	S1 positive response of T2R receptor to API [2]: + (a “+” to indicate whether a particular T2R receptor showed a positive response to a particular API)
COCCCC/C(=N\OCCN)c1ccc(C(F)(F)F)cc1 [Fluvoxamine]	–	–	–	S1 positive response of T2R receptor to API [2]: + (a “+” to indicate whether a particular T2R receptor showed a positive response to a particular API)
O=C(O)Cc1ccccc1Nc1c(Cl)cccc1Cl [Diclofenac]	+ (a “+” to indicate whether a particular T2R receptor showed a positive response to a particular API)	–	–	–
CCN1CCN(Cc2ccc(Nc3ncc(F)c(-c4cc(F)c5nc(C)n(C(C)C)c5c4)n3)nc2)CC1 [Abamaciclib]	–	–	+ (a “+” to indicate whether a particular T2R receptor showed a positive response to a particular API)	–
O=C(O)c1cn(C2CC2)c2cc(N3CCNCC3)c(F)cc2c1=O [Ciprofloxacin]	–	–	+ (a “+” to indicate whether a particular T2R receptor showed a positive response to a particular API)	–
COc1ccc(Cc2nccc3cc(OC)c(OC)cc23)cc1OC [Papaverine]	+ (a “+” to indicate whether a particular T2R receptor showed a positive response to a particular API)	+ (a “+” to indicate whether a particular T2R receptor showed a positive response to a particular API)	–	–

From patent US20250271426A1, “REDUCTION OF BITTER TASTE OF ACTIVE PHARMACEUTICAL INGREDIENTS AND RELATED ASSAYS AND SCREENING METHODS” (Firmenich Incorporated, priority 2022, published 2025)
